Measurements reported in US20240336642A1 (The General Hospital Corporation, priority 2021, published 2024).
Counter-ions that a name gives are not always drawn.

Biological target: h12/15-LOX (Homo sapiens (Human), UniProt P16050)
Assay: 12/15-LOX enzyme inhibition IC50 assay (Examples 1 and 2)
Assay type: biochemical
Conditions: for Emax: h12/15-LOX, read-out: Max % inhibition
Procedure: Enzyme was then added to the cuvettes. […] The % inhibition for each test compound concentration were calculated as follows: […]

Chain of h12/15-LOX (P16050 whole entry): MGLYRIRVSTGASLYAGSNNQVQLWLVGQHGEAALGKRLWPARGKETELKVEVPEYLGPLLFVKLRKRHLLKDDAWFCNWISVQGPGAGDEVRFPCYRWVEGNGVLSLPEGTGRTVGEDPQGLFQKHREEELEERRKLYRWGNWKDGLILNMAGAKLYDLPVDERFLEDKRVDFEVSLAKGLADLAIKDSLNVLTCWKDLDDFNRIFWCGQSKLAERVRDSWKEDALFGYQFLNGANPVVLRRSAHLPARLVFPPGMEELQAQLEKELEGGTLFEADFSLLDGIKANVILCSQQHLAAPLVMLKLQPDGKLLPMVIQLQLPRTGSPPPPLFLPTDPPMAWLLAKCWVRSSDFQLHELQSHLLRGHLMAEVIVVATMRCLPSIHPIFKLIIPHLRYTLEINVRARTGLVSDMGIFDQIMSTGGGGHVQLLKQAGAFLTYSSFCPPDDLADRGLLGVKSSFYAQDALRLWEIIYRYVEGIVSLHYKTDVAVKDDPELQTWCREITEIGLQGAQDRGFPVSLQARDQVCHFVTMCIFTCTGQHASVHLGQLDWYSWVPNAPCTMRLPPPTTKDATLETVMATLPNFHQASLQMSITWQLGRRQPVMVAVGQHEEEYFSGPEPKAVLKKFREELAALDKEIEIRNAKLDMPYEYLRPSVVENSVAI

| SMILES | IC50 [nM] | Emax [%] |
| --- | --- | --- |
| Cc1c(Cl)cc(Cl)cc1-c1nc(C#N)c(NCCCCCO)o1 [Compound 24, 2-(3,5-Dichloro-2-methylphenyl)-5-((5-hydroxypentyl)amino)oxazole-4-carbonitrile] | 320 | 80 |
| N#Cc1nc(-c2cc(Cl)cc(Cl)c2Cl)oc1NCCOCCNc1ccncc1 [Compound 91, 5-((2-(2-(Pyridin-4-ylamino)ethoxy)ethyl)amino)-2-(2,3,5-trichlorophenyl)oxazole-4-carbonitrile] | > 20000 | – |
| N#Cc1nc(-c2cc(Cl)cc(Cl)c2Cl)oc1NCCOCCOc1ccncc1F [Compound 84, 5-((2-(2-((3-Fluoropyridin-4-yl)oxy)ethoxy)ethyl)amino)-2-(2,3,5-trichlorophenyl)oxazole-4-carbonitrile] | 490 | 68 |
| N#Cc1nc(-c2cc(Cl)cc(C(F)(F)F)c2Cl)oc1NCCOCCO [Compound 31, 2-(2,5-Dichloro-3-(trifluoromethyl)phenyl)-5-((2-(2-hydroxyethoxy)ethyl)amino)oxazole-4-carbonitrile] | 2400 | 99 |
| N#Cc1nc(-c2cc(Cl)cc(Cl)c2Cl)oc1NCCOCCOc1cccnc1 [Compound 76, 5-((2-(2-(Pyridin-3-yloxy)ethoxy)ethyl)amino)-2-(2,3,5-trichlorophenyl)oxazole-4-carbonitrile] | 250 | 74 |
| N#Cc1nc(-c2cc(Cl)cc(Cl)c2Cl)oc1NCCOCCOc1ccnnc1 [Compound 103, 5-((2-(2-(Pyridazin-4-yloxy)ethoxy)ethyl)amino)-2-(2,3,5-trichlorophenyl)oxazole-4-carbonitrile] | 4600 | 73 |
| CNc1oc(-c2cc(Cl)cc(OC)c2Cl)nc1C#N [Compound 9] | – | 71 |
| N#Cc1nc(-c2cc(Cl)cc(C(F)(F)F)c2Cl)oc1NCCCCCO [Compound 27, 2-(2,5-Dichloro-3-(trifluoromethyl)phenyl)-5-((5-hydroxypentyl)amino)oxazole-4-carbonitrile] | 550 | 70 |
| CN(C)CCCCC(=O)Nc1oc(-c2cc(Cl)cc(Cl)c2Cl)nc1C#N [Compound 64, N-(4-Cyano-2-(2,3,5-trichlorophenyl)oxazol-5-yl)-5-(dimethylamino)pentanamide hydrochloride] | > 20000 | – |
| CN(C)CCCNC(=O)N(C)c1oc(-c2cc(Cl)cc(Cl)c2Cl)nc1C#N [Compound 66, 1-(4-cyano-2-(2,3,5-trichlorophenyl)oxazol-5-yl)-3-(3-(dimethylamino)propyl)-1-methylurea hydrochloride] | > 20000 | – |
| CN(CCOCCNc1oc(-c2cc(Cl)cc(Cl)c2Cl)nc1C#N)c1ccncc1 [Compound 90, 5-((2-(2-(Methyl(pyridin-4-yl)amino)ethoxy)ethyl)amino)-2-(2,3,5-trichlorophenyl)oxazole-4-carbonitrile] | > 20000 | – |
| N#Cc1nc(-c2cc(Cl)cc(Cl)c2Cl)oc1NCCOCCN1CC(F)(F)C1 [Compound 72, 5-((2-(2-(3,3-Difluoroazetidin-1-yl)ethoxy)ethyl)amino)-2-(2,3,5-trichlorophenyl)oxazole-4-carbonitrile] | > 20000 | – |
| N#Cc1nc(-c2cc(Cl)cc(Cl)c2Cl)oc1NCC#CCOCc1ccc(OCCN2CCOCC2)cc1 [Compound 87] | – | 94 |

The remaining lines, values ahead:

| IC50 [nM] | Emax [%] | SMILES |
| --- | --- | --- |
| > 20000 | – | CN(C)CCCCCC(=O)N(C)c1oc(-c2cc(Cl)cc(Cl)c2Cl)nc1C#N [Compound 61, N-(4-cyano-2-(2,3,5-trichlorophenyl)oxazol-5-yl)-6-(dimethylamino)-N-methylhexanamide hydrochloride] |
| 260 | 95 | N#Cc1nc(-c2cc(Cl)cc(Cl)c2Cl)oc1NCCOCCNc1ccccc1 [Compound 81, 5-((2-(2-(Phenylamino)ethoxy)ethyl)amino)-2-(2,3,5-trichlorophenyl)oxazole-4-carbonitrile] |
| 2000 | 97 | N#Cc1nc(-c2cc(Cl)cc(Cl)c2OC(F)F)oc1NCCCCCO [Compound 23, 2-(3,5-Dichloro-2-(difluoromethoxy)phenyl)-5-((5-hydroxypentyl)amino)oxazole-4-carbonitrile] |
| 170 | 92 | C/C=C/CNc1oc(-c2cc(Cl)cc(Cl)c2Cl)nc1C#N [Compound 15, (E)-5-(But-2-en-1-ylamino)-2-(2,3,5-trichlorophenyl)oxazole-4-carbonitrile] |
| 800 | 100 | Cc1cc(Cl)cc(-c2nc(C#N)c(NCCCCCO)o2)c1Cl [Compound 26, 2-(2,5-Dichloro-3-methylphenyl)-5-((5-hydroxypentyl)amino)oxazole-4-carbonitrile] |
| > 20000 | – | CN(C(=O)CC1CCNCC1)c1oc(-c2cc(Cl)cc(Cl)c2Cl)nc1C#N [Compound 53] |
| > 20000 | 41 | CNc1oc(-c2cc(C(F)(F)F)cc(Cl)c2Cl)nc1C#N [Compound 12, 2-(2,3-Dichloro-5-(trifluoromethyl)phenyl)-5-(methylamino)oxazole-4-carbonitrile] |
| 460 | 68 | Cc1c(Cl)cc(Cl)cc1-c1nc(C#N)c(NCCCCO)o1 [Compound 19, 2-(3,5-Dichloro-2-methylpheny1)-5-((4-hydroxybutyl)amino)oxazole-4-carbonitrile] |
| – | 92 | COCCOc1ccc(COCC#CCNc2oc(-c3cc(Cl)cc(Cl)c3Cl)nc2C#N)cc1 [Compound 85] |
| > 20000 | 37 | CNc1oc(-c2cc(Cl)cc(F)c2Cl)nc1C#N [Compound 7] |
| > 20000 | – | CN(C)CCCCCC(=O)Nc1oc(-c2cc(Cl)cc(Cl)c2Cl)nc1C#N [Compound 63, N-(4-cyano-2-(2,3,5-trichlorophenyl)oxazol-5-yl)-6-(dimethylamino) hexanamide hydrochloride] |
| > 20000 | – | N#Cc1nc(-c2cc(Cl)cc(Cl)c2Cl)oc1NCCOCCOCCOc1ccncc1 [Compound 100, 5-((2-(2-(2-(Pyridin-4-yloxy)ethoxy)ethoxy)ethyl)amino)-2-(2,3,5-trichlorophenyl)oxazole-4-carbonitrile] |
| 8300 | 100 | CN(C)CCCCC(=O)N(C)c1oc(-c2cc(Cl)cc(Cl)c2Cl)nc1C#N [Compound 62, N-(4-Cyano-2-(2,3,5-trichlorophenyl)oxazol-5-yl)-5-(dimethylamino)-N-methylpentanamide hydrochloride] |
| > 20000 | – | COCCOC(=O)Nc1oc(-c2cc(Cl)cc(Cl)c2Cl)nc1C#N [Compound 58, 2-Methoxyethyl (4-cyano-2-(2,3,5-trichlorophenyl)oxazol-5-yl)carbamate] |
| – | 67 | CNc1oc(-c2cc(Cl)cc(Cl)c2OC(F)F)nc1C#N [Compound 4] |
| 110 | 88 | C=CCNc1oc(-c2cc(Cl)cc(Cl)c2Cl)nc1C#N [Compound 14, 5-(allylamino)-2-(2,3,5-trichlorophenyl)oxazole-4-carbonitrile] |
| > 20000 | – | N#Cc1nc(-c2cc(Cl)cc(Cl)c2Cl)oc1NCCOCCN1CC(F)C1 [Compound 77, 5-((2-(2-(3-Fluoroazetidin-1-yl)ethoxy)ethyl)amino)-2-(2,3,5-trichlorophenyl)oxazole-4-carbonitrile] |
| 8000 | 86 | Cc1cc(Cl)c(Cl)c(-c2nc(C#N)c(NCCCCO)o2)c1 [Compound 21, 2-(2,3-Dichloro-5-methylphenyl)-5-((4-hydroxybutyl)amino)oxazole-4-carbonitrile] |
